The source of these data is patent publication EP4702986A1, “POLYPEPTIDE AND USE THEREOF” (Biocells (Beijing) Biotech Co., Ltd., priority 2023, dated 2024).

Like-named read-outs stand apart in the source and are kept apart here. Numbered stars: 1 amine (or outer) side, 2 acyl side, 3 side chain; on linkers, the order of the positions; unused ones are H or OH. Side chains are listed from the residue outwards. Ends that are not written are not given here. Peptide text beside a SMILES is read from it. * marks the point of attachment. X1 = C[C@H](NC(=O)[C@@H]1CCCN1C(=O)[C@@H](N)CSC1CC(=O)N(CCC(=O)*)C1=O)C(=O)N[C@@H](CCCCN)C(=O)O; γGlu = O=C(O)[C@H](CCC(=O)[*:2])N[*:1]; Fumaroyl = O=C(O)/C=C/C(=O)*; Suc = O=C(CCC(=O)[*:2])[*:1]; Lauroyl = CCCCCCCCCCCC(=O)*; AEEA = NCCOCCOCC(=O)O

In experiment [1] the target is T1, human ETB receptor (Homo sapiens, UniProt P24530).
T1 construct: expressed in transfected cells; host or cells: 293T-17 cells, transient transfection
T1 sequence (P24530 27-442): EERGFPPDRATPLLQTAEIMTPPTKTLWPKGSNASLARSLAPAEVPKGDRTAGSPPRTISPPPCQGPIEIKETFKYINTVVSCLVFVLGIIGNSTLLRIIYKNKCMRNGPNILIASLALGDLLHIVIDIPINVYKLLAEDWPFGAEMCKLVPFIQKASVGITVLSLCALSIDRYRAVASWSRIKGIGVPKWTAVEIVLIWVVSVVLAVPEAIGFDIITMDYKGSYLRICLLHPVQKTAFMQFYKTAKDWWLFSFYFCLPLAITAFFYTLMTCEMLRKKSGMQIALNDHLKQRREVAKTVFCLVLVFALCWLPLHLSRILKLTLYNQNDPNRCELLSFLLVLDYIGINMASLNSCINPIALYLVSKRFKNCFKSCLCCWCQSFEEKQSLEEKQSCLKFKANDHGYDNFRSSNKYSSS
Put plainly: Determination of EC50 of polypeptides against human ETB receptor (IP-One Gq kit). Type of experiment: cell-based. On the procedure:
293T-17 cells were seeded at a density of 650,000 cells per well in a 6-well plate and cultured overnight in an incubator at 37°C and 5% CO2. Afterward, the cells were transfected with an expression vector, PCDNA3.1-hETB which contained a human ETB receptor gene, at a plasmid concentration of 2.5 µg per well. The cells were further cultured for 48 hours, and green fluorescence expression was observed under a fluorescence microscope. The cells were then digested with trypsin and counted. The activity of compounds on the human ETB receptor was determined with the IP-One Gq kit from Cisbio Bioassays. The cells were suspended in Stim Buffer provided in the kit and the cell suspension was added to a 96-well detection plate at 7 µL cell suspension (containing 30,000 cells) per well. The polypeptides to be tested (prepared according to the Preparation Example of the invention) were diluted in Stim B to obtain a gradient of 11 concentration points. For each concentration point, the polypeptides to be tested were dissolved in Stim B to be at a concentration of 2×, and added at 7 µL to the test cells, while 7 µL of PBS solution was added to the cells in the negative control wells. The plate was sealed and incubated at 37°C for 1 hour in a cell culture incubator. Detection wells, positive control wells containing human endothelin ET1 (ET1: […] (C1-C15,C3-C11)), and PBS control wells were each added with 3 µL of IP1 d2 working solution and 3 µL of IP1 Tb cryptotate Antibody working solution. The plate was then sealed and incubated in the dark at room temperature (25°C±5°C) for 1 hour. The plate seal was removed, and the […] at 665 nm and 620 nm was measured with an ID5 microplate reader. The ratio of the acceptor emission signal to the donor emission signal, i.e., (signal at 665 nm/signal at 620 nm)×10^4, was calculated for each well. With F representing the average value of values of signal at 665 nm/signal at 620 nm for the test samples at various concentrations, a scatterplot was plotted, where the abscissa represented the F value, and the ordinate represented the logarithmic value of the peptide concentration. A curve was fitted with an appropriate method to calculate EC50 values of the polypeptides against the human ETB receptor. Another method was provided for fitting a curve where activation rate of the test polypeptides at each concentration relative to the positive control sample human endothelin ET1 was calculated first with the method in Example 1, and a scatterplot was plotted, where the abscissa represented the activation rate, and the ordinate represented the logarithmic value of the polypeptide concentration. A curve was fitted with an appropriate method to calculate the EC50 values of the polypeptides against the human ETB receptor.

Experiment [2] concerns the target T1, human ETB receptor. Put plainly: Screening of polypeptides for activity on human ETB receptor (IP-One Gq kit, % of positive control IRL1620). Type of experiment: cell-based. How it is done: 293T-17 cells were seeded at a density of 650,000 cells per well in a 6-well plate and cultured overnight in an incubator at 37°C and 5% CO2. Afterward, the cells were transfected with an expression vector, PCDNA3.1-hETB which contained a human ETB receptor gene, at a plasmid concentration of 2.5 µg per well. The cells were further cultured for 48 hours, and green fluorescence expression was observed under a fluorescence microscope. The cells were then digested with trypsin and counted. The activity of compounds on the human ETB receptor was determined with the IP-One Gq kit from Cisbio Bioassays. The cells were suspended in Stim Buffer provided in the kit and the cell suspension was added to a 96-well detection plate at 7 µL cell suspension (containing 30,000 cells) per well. The polypeptides to be screened for activity (prepared according to the Preparation Example of the invention) and polypeptide IRL1620 as positive control were dissolved in Stim B to be at a concentration of 2×, and 7 µL was added to the test cells, while 7 µL of PBS solution was added to the cells in the negative control wells. IRL1620 was used as the positive control polypeptide. The plate was sealed and incubated at 37°C for 1 hour in a cell culture incubator. Test wells, positive control wells, and PBS control wells were each added with 3 µL of IP1 d2 working solution and 3 µL of IP1 Tb cryptotate Antibody working solution. The plate was then sealed and incubated in the dark at room temperature (25°C±5°C) for 1 hour. The plate seal was removed, and the […] at 665 nm and 620 nm was measured with an ID5 microplate reader. The ratio of the acceptor emission signal to the donor emission signal, i.e., the value of (signal at 665 nm/signal at 620 nm)×10^4, was calculated for each well. With F1 representing the average value of values of signal at 665 nm/signal at 620 nm determined for the test sample at a specific concentration, F2 representing the average value of values of signal at 665 nm/signal at 620 nm determined for the positive control IRL1620 at the same concentration, and T1 representing the average value of values of signal at 665 nm/signal at 620 nm determined for the PBS negative control, the percentage of activity of the test polypeptide sample relative to the positive control sample IRL1620 is equal to (F1-T1)×100/(F2-T1). hETB sequence (NCBI accession number NM_000115.5).

Where [3] appears, read: 293T-17 cells transfected with PCDNA3.1-hETB, read-out: hETBR agonist activity EC50/nM.

On to `CCCCCCCCCCCC(=O)N[C@@H](CCC(=O)NCCOCCOCC(=O)NCCCC[C@H](NC(=O)[C@H](Cc1c[nH]cn1)NC(=O)[C@H](C)NC(=O)[C@H](Cc1ccccc1)NC(=O)[C@H](Cc1ccc(O)cc1)NC(=O)[C@@H](NC(=O)[C@H](C)NC(=O)[C@H](CCC(=O)O)NC(=O)[C@H](CCC(=O)O)NC(=O)[C@H](CC(=O)O)NC(=O)/C=C/C(=O)O)C(C)C)C(=O)N[C@@H](CC(=O)O)C(=O)N[C@H](C(=O)N[C@H](C(=O)N[C@@H](Cc1c[nH]c2ccccc12)C(=O)O)[C@@H](C)CC)C(C)C)C(=O)O` [BX229-Na] (Fumaroyl-DEEAVYFAHK([AEEA-γGlu-Lauroyl])DVIW-OH), for which, at human ETB receptor [1] (setting [3]), the EC50 came to 16.7 nM.

In the case of “Suc-DE cyclo(CEEC)YFAHKDIIW (Suc-DECEECYFAHKDIIW; not fully specified (bridges); printed as Suc-DE cyclo(CEEC)YFAHKDIIW; also: cyclo(CEEC) in N-terminal extension, bond type not given here) [BX-57]”, the “hETBR agonist activity, percentage of activity relative to IRL1620” value with human ETB receptor [2] is on record as 121.58%@100nM; with human ETB receptor [2] (@10nM), 86.20%@10nM.

Consider “Fum-DEEEVYFAHKDIIW (Fumaroyl-DEEEVYFAHKDIIW) [BX-52]”, for which the “hETBR agonist activity, percentage of activity relative to IRL1620” value with human ETB receptor [2] came to 121.00%@100nM; in the experiment with human ETB receptor [2] (@10nM), 145.60%@10nM.

At human ETB receptor [1], `CC[C@H](C)[C@H](NC(=O)[C@H](CC(=O)O)NC(=O)[C@H](CC(C)C)NC(=O)[C@H](Cc1c[nH]cn1)NC(=O)[C@H](C)NC(=O)[C@H](Cc1ccccc1)NC(=O)[C@H](Cc1ccc(O)cc1)NC(=O)[C@@H](NC(=O)[C@H](C)NC(=O)[C@H](CCC(=O)O)NC(=O)[C@H](CCC(=O)O)NC(=O)[C@H](CC(=O)O)NC(=O)CCC(=O)O)C(C)C)C(=O)N[C@H](C(=O)N[C@@H](Cc1c[nH]c2ccccc12)C(=O)O)[C@@H](C)CC` [IRL1620, reference compound] (Suc-DEEAVYFAHLDIIW-OH) returned an EC50 of 1.33 nM.

Turning to `CC[C@H](C)[C@H](NC(=O)[C@H](CC(=O)O)NC(=O)[C@H](CCCCNC(=O)COCCOCCNC(=O)CCN1C(=O)CC(SC[C@H](N)C(=O)N2CCC[C@H]2C(=O)N[C@@H](C)C(=O)N[C@@H](CCCCN)C(=O)O)C1=O)NC(=O)[C@H](Cc1c[nH]cn1)NC(=O)[C@H](C)NC(=O)[C@H](Cc1ccccc1)NC(=O)[C@H](Cc1ccc(O)cc1)NC(=O)[C@@H](NC(=O)[C@H](C)NC(=O)[C@H](CCC(=O)O)NC(=O)[C@H](CCC(=O)O)NC(=O)[C@H](CC(=O)O)NC(=O)/C=C/C(=O)O)C(C)C)C(=O)N[C@H](C(=O)N[C@@H](Cc1c[nH]c2ccccc12)C(=O)O)[C@@H](C)CC` (stereo partly drawn) [BX-95] (Fumaroyl-DEEAVYFAHK([AEEA-X1])DIIW-OH), at human ETB receptor [1] (setting [3]), the EC50 came out at 45.6 nM.

For Fum-DEEEVYFAHOrnDIIW [BX-59], the “hETBR agonist activity, percentage of activity relative to IRL1620” value at human ETB receptor [2] turned out to be 93.46%@100nM; at human ETB receptor [2] (@10nM), 125.64%@10nM.
